# Columns and labels:
# [1] = target: Replicase polyprotein 1ab (Severe acute respiratory syndrome coronavirus 2, UniProt P0DTD1); experiment: Inhibition of SARS Cov-2 papain-like protease extracted form Escherichia coli Rosetta (DE3) using fluorogenic substrate RLRGG-AMC assessed as inhibition rate by measuring fluorescent signal incubated for 30 mins
# [2] = target: Replicase polyprotein 1ab (Severe acute respiratory syndrome coronavirus 2) (UniProt P0DTD1); experiment: Inhibition of SARS Cov-2 papain-like protease extracted form Escherichia coli Rosetta (DE3) using fluorogenic substrate RLRGG-AMC assessed as inhibition rate by measuring fluorescent signal at 4 uM incubated for 30 mins relative to control
Structure (SMILES),IC50 [1] [nM],inhibition [2]
CCOC(=O)CCCNCc1ccc(-c2cccc([C@@H](C)NC(=O)c3cc(NC4CNC4)ccc3C)c2)s1,250,
Cc1ccc(NC(=O)Oc2ccc([N+](=O)[O-])cc2)cc1C(=O)N[C@H](C)c1cccc2ccccc12,,27%
Cc1ccc(NC(=O)c2ccnc(O)c2)cc1C(=O)N[C@H](C)c1cccc2ccccc12,,74%
Cc1ccc(NCc2ccc(CC(=O)O)cc2)cc1C(=O)N[C@H](C)c1cccc2ccccc12,,Active; Compound Showed Weak Inhibitory Effect
COC(=O)[C@@H](CCC(=O)OC(C)(C)C)NCc1ccc(-c2cccc([C@@H](C)NC(=O)c3cc(N)ccc3C)c2)s1 (racemic),4710,81%
C[C@@H](NC(=O)c1cc(N)ccc1O)c1cccc2ccccc12,,6%
Cc1ccc(NC(=O)c2cc(Br)cnc2Cl)cc1C(=O)N[C@H](C)c1cccc2ccccc12,,19%
Cc1ccc(NC2CNC2)cc1C(=O)N[C@H](C)c1cccc(-c2ccc(CN3CC[C@@H](C(=O)O)C3)s2)c1,270,
COc1ccc([N+](=O)[O-])c(C(=O)Nc2ccc(C)c(C(=O)N[C@H](C)c3cccc4ccccc34)c2)c1,,53%
Cc1ccc(NC(=O)c2cccnc2O)cc1C(=O)N[C@H](C)c1cccc2ccccc12,,Active; Compound Showed Weak Inhibitory Effect
COC(=O)Cc1ccc(CNc2ccc(C)c(C(=O)N[C@H](C)c3cccc4ccccc34)c2)cc1,2910,21%
CCOC(=O)[C@@H]1CCN(Cc2ccc(-c3cccc([C@@H](C)NC(=O)c4cc(NC5CNC5)ccc4C)c3)s2)C1,1940,
Cc1ccc(NC(=O)c2cccs2)cc1C(=O)N[C@H](C)c1cccc2ccccc12,,Active; Compound Showed Weak Inhibitory Effect
CCOC(=O)CCCNCc1ccc(-c2cccc([C@@H](C)NC(=O)c3cc(N)ccc3C)c2)s1,,Active; Compound Showed Weak Inhibitory Effect
Cc1ccc(NC(=O)c2ccc(Cl)s2)cc1C(=O)N[C@H](C)c1cccc2ccccc12,> 20000,13%
Cc1ccc(NC(=O)c2cc(Br)cnc2O)cc1C(=O)N[C@H](C)c1cccc2ccccc12,,Active; Compound Showed Weak Inhibitory Effect
CC[C@@H](C)[C@@H](NC(=O)c1ccc(-c2cccc([C@@H](C)NC(=O)c3cc(N)ccc3C)c2)s1)C(=O)OC,2720,73%
Cc1ccc(N)cc1C(=O)N[C@H](C)c1cccc(-c2ccc(C=O)s2)c1,,30%
Cc1ccc(N)cc1C(=O)N[C@H](C)c1cccc2ccccc12,,68%

# Source: ChEMBL document CHEMBL6103536, “Chemical Space Profiling of SARS-CoV-2 PLpro Using DNA-Encoded Focused Libraries” (ACS Med Chem Lett, 2024)
